Assay results reported in patent US20260008793A1, “IONIZABLE CATIONIC LIPIDS INCORPORATING SILICON” (ALDEXCHEM KFT., priority 2022, published 2026).

Experiments:
[1] = LNP size, PDI and zeta potential by Dynamic Light Scattering (Method A); type: physicochemical; details: LNP formulated by Method A; for Zeta potential (mV): 1xPBS pH 7.4; for PDI / Size (nm): DLS; for Size (nm): Luciferase-mRNA loaded
Method: The synthesized lipids were tested in term of in vitro transfection efficacy and toxicity on HeLa cells. In order to perform the mentioned biological tests, appropriate LNPs had to be formulated from the synthesized lipids. The formulation technique was different in Method A and B. The particle size, PDI and zeta potential of resulting LNPs were determined by means of Dynamic Light Scattering technique (DLS). Prior to biological testing the encapsulation efficiency (EE) of the loaded LNPs was determined by using RiboGreen RNA assay. In case of Method A Luciferase-mRNA while in case of Method B GFP-mRNA was transfected into the cells. In parallel with the transfection experiments, toxicity of the investigated LNPs was determined, in case of Method A resazurin assay while in case of Method B MTT assay was used. In the case of some lipids, the apparent pKa in LNPs was determined by using TNS titration based on the method described: Angew Chem Int Ed Engl. 2012, 51 (34), 8529-8533, doi: 10.1002/anie.201203263).
• 1. If needed, prepare stock solutions by solving known amounts of lipid powder into an appropriate solvent. The recommended solvent is Ethanol and the recommended concentration is typically in the range 10-50 mM. Higher concentrations are preferred to allow flexibility on mRNA-LNP concentration. • 2. Remove the lipid stock solutions from the −20° C. freezer. For long-term storage, −80° C. is used. • 3. Check the vials for precipitation, DOPE (CAS #4004-05-1) (20 mM) and DSPE-PEG (CAS #474922-26-4) (5 mM) may need a 5-30 minute incubation step at 37° C. with intermittent vortexing to resuspend all contents. […] As a last resort, lipids may be heated to 50° C. to resuspend, time should be kept as short as possible to prevent oxidation or other modifying or degradative processes. • 4. Mix the lipids by vortexing for 2 minutes. • 5. […] Cooling the solution prevent excessive evaporation of ethanol or similar solvents upon opening. • 6. Meanwhile, thaw the RNA samples, including the latest SecNLuc control, by inserting the frozen tube in a room temperature aluminium block. • 7. Prepare for each LNP-formulation with identical mRNA component, an RNA master mix according to Table 1 below in a fresh tube. Use of a master mix allows more precise comparison of lipid formulations relative to each other. Split the master mix over a number of fresh tubes equal to the number of samples+controls. Each tube contains 375 μl of mRNA in 10 mM Citrate pH 4.0. • 8. Prepare for each LNP formulation with identical lipid composition a Lipid master mix according to Table 1 below in a fresh tube, exclude the lipid of interest. Use of a master mix allows more precise comparison of the novel ionizable lipid relative to each other. Split the master mix over a number of fresh tubes equal to the number of samples+controls. Each tube contains 65.5 μl of lipid master mix. • 9. Add the ionizable lipid of interest to the equally divide lipid master mix. Mix well by pipetting up and down. Label the tube according to the ionizable lipid used. • 10. Power on the ‘L 1 formulation machine’ (L 1 FM) and allow it to do a calibration of motor positions.
• 18. Fill a fresh syringe (C) through a blunt 18 G stainless steel needle with the previously prepared RNA mixture of step 6. The volume should be approximately […] of total formulation volume+25 μl (dead-volume). Make sure to remove all air bubbles by tapping. • 19. Fill a fresh syringe (D) through a blunt 18 G stainless steel needle with the Lipid master mix. The volume should be approximately 35% of total formulation volume+25 μl (dead-volume). Again, Make sure to remove all bubbles. • 20. Attach the syringes in the correct orientation, syringe A on the left and syringe B on the right • 21. Load the ‘Receiving station’ with appropriate sized collection containers (2 ml Eppendorf tubes). • 22. Press the microfluidic chip to the back of the machine with your thumb and hold, press the ‘Button 1’ (40 g). […]

HeLa cells = experiment: Transfection efficiency with Luciferase-mRNA, Nano-Glo assay (Method A); type: cell-based; details: 100 ng Luciferase (SecNLuc) mRNA, 24 h, luminescence
Procedure, shortened: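 LNPs carrying secreted NanoLuc mRNA (100, 50 or 10 ng/well, in Opti-MEM) added to HeLa cells at ~80% confluence and incubated 24 h. Medium luciferase activity measured by Nano-Glo luminescence about 3 min after reagent addition; toxicity tested in parallel by resazurin.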

CCCCCCCCOC(CCCCCCCC)O[Si](C)(C)OCCCCCCN(CCCCO)CCCCCCOC(=O)C(CCCCCC)CCCCCCCC (stereo not shown) [Example 143, 7-(4-hydroxybutyl)-15,15-dimethyl-17-octyl-14,16,18-trioxa-7-aza-15-silahexacosyl 2-hexyldecanoate]
Zeta potential (mV) [1]: −5.5 mV | PDI [1]: 0.17 | Size (nm) [1]: 159.7 nm | Transfection* (Method A = 100 ng mRNA) (HeLa cells): 4825007

CCCCCCCCCC(OCCCCCC)O[Si](C)(C)OCCCCCCN(CCCCO)CCCCCCOC(=O)C(CCCCCC)CCCCCCCC (stereo not shown) [Example 144, 18-(4-hydroxybutyl)-10,10-dimethyl-8-nonyl-7,9,11-trioxa-18-aza-10-silatetracosan-24-yl 2-hexyldecanoate]
Zeta potential (mV) [1]: −10.5 mV | PDI [1]: 0.15 | Size (nm) [1]: 133.9 nm | Transfection* (Method A = 100 ng mRNA) (HeLa cells): 5688575

CCCCCCCCCCOC(CCCCC)O[Si](C)(C)OCCCCCCN(CCCCO)CCCCCCOC(=O)C(CCCCCC)CCCCCCCC (stereo not shown) [Example 145, 7-(4-hydroxybutyl)-15,15-dimethyl-17-pentyl-14,16,18-trioxa-7-aza-15-silaoctacosyl 2-hexyldecanoate]
Zeta potential (mV) [1]: −7.7 mV | PDI [1]: 0.16 | Size (nm) [1]: 143.3 nm | Transfection* (Method A = 100 ng mRNA) (HeLa cells): 5735227

CCCCCCCCOC(CCCCCCC)O[Si](C)(C)OCCCCCN(CCCCO)CCCCCCOC(=O)C(CCCCCC)CCCCCCCC (stereo not shown) [Example 146, 16-heptyl-7-(4-hydroxybutyl)-14,14-dimethyl-13,15,17-trioxa-7-aza-14-silapentacosyl 2-hexyldecanoate]
Zeta potential (mV) [1]: −11.0 mV | PDI [1]: 0.07 | Size (nm) [1]: 116.7 nm | Transfection* (Method A = 100 ng mRNA) (HeLa cells): 5015757

CCCCCCCCSC(CCCCCCC)O[Si](C)(C)OCCCCCCN(CCCCO)CCCCCCOC(=O)C(CCCCCC)CCCCCCCC (stereo not shown) [Example 147, 17-heptyl-7-(4-hydroxybutyl)-15,15-dimethyl-14,16-dioxa-18-thia-7-aza-15-silahexacosyl 2-hexyldecanoate]
Zeta potential (mV) [1]: −7.5 mV | PDI [1]: 0.14 | Size (nm) [1]: 146.8 nm | Transfection* (Method A = 100 ng mRNA) (HeLa cells): 4302243

CCCCCCCCCCSC(CCCC)C(=O)OCCCCCCN(CCCCO)CCCCCC(OCCCCCCCC)O[Si](C)(C)CCCCCCCC (stereo not shown) [Example 166, 6-((6-((dimethyl(octyl)silyl)oxy)-6-(octyloxy)hexyl)(4-hydroxybutyl)amino)hexyl 2-(decylthio)hexanoate]
Zeta potential (mV) [1]: −13.01 mV | PDI [1]: 0.185 | Size (nm) [1]: 223.6 nm | Transfection* (Method A = 100 ng mRNA) (HeLa cells): 791474

CCCCCCCCCCSC(CCCC)C(=O)OCCCCCCN(CCCCO)CCCCCC(OCCCCCCCC)O[Si](C)(C)OCCCCCCCC (stereo not shown) [Example 168, 7-(4-hydroxybutyl)-15,15-dimethyl-13-(octyloxy)-14,16-dioxa-7-aza-15-silatetracosyl 2-(decylthio)hexanoate]
Zeta potential (mV) [1]: −11.79 mV | PDI [1]: 0.085 | Size (nm) [1]: 224.2 nm | Transfection* (Method A = 100 ng mRNA) (HeLa cells): 74333

CCCCCCCCCCSC(CCCC)C(=O)OCCCCCCN(CCCCO)CCCCCCOC(CCCCCCC)O[Si](C)(C)OCCCCCCCC (stereo not shown) [Example 169, 15-heptyl-7-(4-hydroxybutyl)-17,17-dimethyl-14,16,18-trioxa-7-aza-17-silahexacosyl 2-(decylthio)hexanoate]
Zeta potential (mV) [1]: −13.9 mV | PDI [1]: 0.09 | Size (nm) [1]: 159.7 nm | Transfection* (Method A = 100 ng mRNA) (HeLa cells): 1379853

CCCCCCCCCCSC(CCCC)C(=O)OCCCCCCN(CCCCO)CCCCCC(OCCCCCCCC)O[Si](C)(C)O[Si](C)(C)CCCCCCCC (stereo not shown) [Example 170, 6-((4-hydroxybutyl)(6-(octyloxy)-6-((1,1,3,3-tetramethyl-3-octyldisiloxaneyl)oxy)hexyl)amino)hexyl 2-(decylthio)hexanoate]
Zeta potential (mV) [1]: −14.68 mV | PDI [1]: 0.210 | Size (nm) [1]: 207.5 nm | Transfection* (Method A = 100 ng mRNA) (HeLa cells): 711747

CCCCCCCCCCSC(CCCC)C(=O)OCCCCCCN(CCCCO)CCCCCCOC(CCCCCCC)O[Si](C)(C)O[Si](C)(C)CCCCCCCC (stereo not shown) [Example 171, 15-heptyl-7-(4-hydroxybutyl)-17,17,19,19-tetramethyl-14,16,18-trioxa-7-aza-17,19-disilaheptacosyl 2-(decylthio)hexanoate]
Zeta potential (mV) [1]: −12.04 mV | PDI [1]: 0.017 | Size (nm) [1]: 178.9 nm | Transfection* (Method A = 100 ng mRNA) (HeLa cells): 302489

CCCCCCCCCCSC(CCCC)C(=O)OCCCCCCN(CCCCO)CCCCCC(OCCCCCCCC)O[Si](C)(C)O[Si](C)(C)OCCCCCCCC (stereo not shown) [Example 172, 6-((4-hydroxybutyl)(6-(octyloxy)-6-((1,1,3,3-tetramethyl-3-(octyloxy)disiloxaneyl)oxy)hexyl)amino)hexyl 2-(decylthio)hexanoate]
Zeta potential (mV) [1]: −9.92 mV | PDI [1]: 0.07 | Size (nm) [1]: 151.7 nm | Transfection* (Method A = 100 ng mRNA) (HeLa cells): 301328

CCCCCCCCCCSC(CCCC)C(=O)OCCCCCCN(CCCCO)CCCCCCOC(CCCCCCC)O[Si](C)(C)O[Si](C)(C)OCCCCCCCC (stereo not shown) [Example 173, 15-heptyl-7-(4-hydroxybutyl)-17,17,19,19-tetramethyl-14,16,18,20-tetraoxa-7-aza-17,19-disilaoctacosyl 2-(decylthio)hexanoate]
Zeta potential (mV) [1]: −11.32 mV | PDI [1]: 0.033 | Size (nm) [1]: 180.5 nm | Transfection* (Method A = 100 ng mRNA) (HeLa cells): 182533

CCCCCCCCCCSC(CCCC)C(=O)OCCCCCCN(CCCCO)CCCCCC(OCCCCCCCC)O[Si](C)(C)OCC(CCCCCC)CCCCCCCC (stereo not shown) [Example 174, 18-hexyl-7-(4-hydroxybutyl)-15,15-dimethyl-13-(octyloxy)-14,16-dioxa-7-aza-15-silahexacosyl 2-(decylthio)hexanoate]
Zeta potential (mV) [1]: −15.5 mV | PDI [1]: 0.159 | Size (nm) [1]: 222.6 nm | Transfection* (Method A = 100 ng mRNA) (HeLa cells): 2292920

CCCCCCCCCCSC(CCCC)C(=O)OCCCCCCN(CCCCO)CCCCCCOC(CCCCCCC)O[Si](C)(C)OCC(CCCCCC)CCCCCCCC (stereo not shown) [Example 175, 15-heptyl-20-hexyl-7-(4-hydroxybutyl)-17,17-dimethyl-14,16,18-trioxa-7-aza-17-silaoctacosyl 2-(decylthio)hexanoate]
Zeta potential (mV) [1]: −11.78 mV | PDI [1]: 0.068 | Size (nm) [1]: 161.2 nm | Transfection* (Method A = 100 ng mRNA) (HeLa cells): 119238.5

CCCCCCCCOC(CCCCCN(CCCCO)CCCCCCOC(=O)C(CCCCCCCC)SCCCCC)O[Si](C)(C)CCCCCCCC (stereo not shown) [Example 177, 6-((6-((dimethyl(octyl)silyl)oxy)-6-(octyloxy)hexyl)(4-hydroxybutyl)amino)hexyl 2-(pentylthio)decanoate]
Zeta potential (mV) [1]: −14.50 mV | PDI [1]: 0.100 | Size (nm) [1]: 166 nm | Transfection* (Method A = 100 ng mRNA) (HeLa cells): 691264

CCCCCCCCC(SCCCCC)C(=O)OCCCCCCN(CCCCO)CCCCCCOC(CCCCCCC)O[Si](C)(C)CCCCCCCC (stereo not shown) [Example 178, 15-heptyl-7-(4-hydroxybutyl)-17,17-dimethyl-14,16-dioxa-7-aza-17-silapentacosyl 2-(pentylthio)decanoate]
Zeta potential (mV) [1]: −13.00 mV | PDI [1]: 0.058 | Size (nm) [1]: 209.9 nm | Transfection* (Method A = 100 ng mRNA) (HeLa cells): 557798
